Source: patent US9315498B2, “Arlethynyl derivatives” (Hoffmann-La Roche Inc., priority 2010, dated 2016)

Target: human mGlu5a receptor (Homo sapiens (Human), UniProt P41594)
Experiment: Intracellular Ca2+ mobilization assay (mGlu5 PAM)
Assay type: cell-based
Settings: for EC50: HEK-293 cells stably transfected with human mGlu5a, L-glutamate added at EC20 after pre-incubation with test compound, read-out: EC50 (nM) mGlu5PAM; for Emax: maximal response in % of the maximal stimulatory effect obtained with saturating concentrations of L-glutamate, read-out: Eff. (%)
Protocol: A monoclonal HEK-293 cell line stably transfected with a cDNA encoding for the human mGlu5a receptor was generated; for the work with mGlu5 Positive Allosteric Modulators (PAMs), a cell line with low receptor expression levels and low constitutive receptor activity was selected to allow the differentiation of agonistic versus PAM activity. Cells were cultured according to standard protocols (Freshney, 2000) in Dulbecco's Modified Eagle Medium with high glucose supplemented with 1 mM glutamine, 10% (vol/vol) heat-inactivated bovine calf serum, Penicillin/Streptomycin, 50 μg/ml hygromycin and 15 μg/ml blasticidin (all cell culture reagents and antibiotics from Invitrogen, Basel, Switzerland).
About 24 hrs before an experiment, 5×10^4 cells/well were seeded in poly-D-lysine coated, black/clear-bottomed 96-well plates. The cells were loaded with 2.5 μM Fluo-4AM in loading buffer (1×HBSS, 20 mM HEPES) for 1 hr at 37° C. and washed five times with loading buffer. The cells were transferred into a Functional Drug Screening System 7000 (Hamamatsu, Paris, France), and 11 half logarithmic serial dilutions of test compound at 37° C. were added and the cells were incubated for 10-30 min. with on-line recording of fluorescence. Following this pre-incubation step, the agonist L-glutamate was added to the cells at a concentration corresponding to EC20 (typically around 80 μM) with on-line recording of fluorescence; in order to account for day-to-day variations in the responsiveness of cells, the EC20 of glutamate was determined immediately ahead of each experiment by recording of a full dose-response curve of glutamate.
Responses were measured as peak increase in fluorescence minus basal (i.e. fluorescence without addition of L-glutamate), normalized to the maximal stimulatory effect obtained with saturating concentrations of L-glutamate. Graphs were plotted with the % maximal stimulatory using XLfit, a curve fitting program that iteratively plots the data using Levenburg Marquardt algorithm. The single site competition analysis equation used was y=A+((B−A)/(1+((x/C)D))), where y is the % maximal stimulatory effect, A is the minimum y, B is the maximum y, C is the EC50, x is the log10 of the concentration of the competing compound and D is the slope of the curve (the Hill Coefficient). From these curves the EC50 (concentration at which half maximal stimulation was achieved), the Hill coefficient as well as the maximal response in % of the maximal stimulatory effect obtained with saturating concentrations of L-glutamate were calculated.
A depression of the signal observed after addition of the EC20 concentration of L-glutamate was indicative of an inhibitory activity of the test compound.

human mGlu5a receptor, sequence (P41594 other isoform, or with tags, fused parts or gaps): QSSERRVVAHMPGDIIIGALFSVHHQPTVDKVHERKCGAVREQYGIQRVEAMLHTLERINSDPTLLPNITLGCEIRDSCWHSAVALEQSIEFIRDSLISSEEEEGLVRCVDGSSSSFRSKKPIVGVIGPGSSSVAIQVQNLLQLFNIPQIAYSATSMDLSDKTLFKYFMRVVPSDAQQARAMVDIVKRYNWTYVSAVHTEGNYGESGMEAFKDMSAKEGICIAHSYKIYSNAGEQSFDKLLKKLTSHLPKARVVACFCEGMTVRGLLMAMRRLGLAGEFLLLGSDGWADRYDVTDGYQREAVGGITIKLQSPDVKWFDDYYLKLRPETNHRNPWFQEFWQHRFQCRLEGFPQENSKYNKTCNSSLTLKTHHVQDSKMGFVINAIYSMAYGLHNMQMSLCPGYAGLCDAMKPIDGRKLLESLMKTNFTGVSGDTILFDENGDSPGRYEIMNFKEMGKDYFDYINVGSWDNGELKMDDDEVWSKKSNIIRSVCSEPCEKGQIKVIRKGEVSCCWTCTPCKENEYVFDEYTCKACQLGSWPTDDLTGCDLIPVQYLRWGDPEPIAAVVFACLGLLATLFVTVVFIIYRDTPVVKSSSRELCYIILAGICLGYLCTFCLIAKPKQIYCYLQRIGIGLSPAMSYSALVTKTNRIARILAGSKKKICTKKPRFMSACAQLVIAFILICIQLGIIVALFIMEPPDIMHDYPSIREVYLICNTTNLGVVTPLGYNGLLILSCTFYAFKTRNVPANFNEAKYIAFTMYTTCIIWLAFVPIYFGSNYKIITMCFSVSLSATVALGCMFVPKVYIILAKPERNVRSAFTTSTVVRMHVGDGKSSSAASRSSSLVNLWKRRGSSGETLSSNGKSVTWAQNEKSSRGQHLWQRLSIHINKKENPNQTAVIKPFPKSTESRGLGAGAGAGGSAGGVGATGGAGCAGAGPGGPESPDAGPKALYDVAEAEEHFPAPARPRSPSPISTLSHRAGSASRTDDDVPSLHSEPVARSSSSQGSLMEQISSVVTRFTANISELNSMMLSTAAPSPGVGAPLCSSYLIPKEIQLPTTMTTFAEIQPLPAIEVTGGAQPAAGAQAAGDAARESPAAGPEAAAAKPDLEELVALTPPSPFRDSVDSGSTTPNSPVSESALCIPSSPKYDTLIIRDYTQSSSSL

Structure (SMILES) | EC50 | Emax
COC1C(=O)N(c2ncc(C#Cc3cccc(F)c3)cn2)CC1(C)C (racemic) [Example 130, (RS)-1-[5-(3-Fluoro-phenylethynyl)-pyrimidin-2-yl]-3-methoxy-4,4-dimethyl-pyrrolidin-2-one] | 41 nM | 74%
CC1CN(c2ncc(C#Cc3ccccc3)cn2)C(=O)OC1(C)C (racemic) [Example 145, (RS)-5,6,6-Trimethyl-3-(5-phenylethynyl-pyrimidin-2-yl)-[1,3]oxazinan-2-one] | 38 nM | 93%
CC1CN(c2ncc(C#Cc3cc(F)ccc3F)cn2)C(=O)OC1(C)C (racemic) [Example 146, (RS)-3-[5-(2,5-Difluoro-phenylethynyl)-pyrimidin-2-yl]-5,6,6-trimethyl-[1,3]oxazinan-2-one] | 69 nM | 64%
CC1CN(c2ncc(C#Cc3cccc(F)c3)cn2)C(=O)OC1(C)C (racemic) [Example 148, (RS)-3-[5-(3-Fluoro-phenylethynyl)-pyrimidin-2-yl]-5,6,6-trimethyl-[1,3]oxazinan-2-one] | 39 nM | 75%
CC1CN(c2ncc(C#Cc3ccc(F)cc3)cn2)C(=O)OC1(C)C (racemic) [Example 149, (RS)-3-[5-(4-Fluoro-phenylethynyl)-pyrimidin-2-yl]-5,6,6-trimethyl-[1,3]oxazinan-2-one] | 114 nM | 78%
COC1CN(c2ccc(C#Cc3cccc(F)c3)cn2)C(=O)OC1(C)C (racemic) [Example 169, (RS)-3-[5-(3-Fluoro-phenylethynyl)-pyridin-2-yl]-5-methoxy-6,6-dimethyl-[1,3]oxazinan-2-one] | 13 nM | 52%
CN1C(=O)N(c2ccc(C#Cc3ccccc3)nn2)[C@@H]2CCC[C@@H]21 (racemic) [Example 170, (3aRS,6aSR)-1-Methyl-3-(6-phenylethynyl-pyridazin-3-yl)-hexahydro-cyclopentaimidazol-2-one] | 13 nM | 105%
CC1CN(c2ccc(C#Cc3ccccc3)cn2)C(=O)CO1 (racemic) [Example 171, (RS)-6-Methyl-4-(5-phenylethynyl-pyridin-2-yl)-morpholin-3-one] | 88 nM | 73%
CN1C(=O)N(c2ccc(C#Cc3cccc(F)c3)nn2)[C@@H]2CCC[C@@H]21 (racemic) [Example 174, (3aSR,6aRS)-1-[6-(3-Fluoro-phenylethynyl)-pyridazin-3-yl]-3-methyl-hexahydro-cyclopentaimidazol-2-one] | 12 nM | 56%
COC[C@H]1CN(c2ccc(C#Cc3ccccc3)cn2)C(=O)O1 (single isomer, unassigned) [Example 3, (5R or 5S)-5-Methoxymethyl-3-(5-phenylethynyl-pyridin-2-yl)-oxazolidin-2-one] | 18 nM | 46%
COC[C@@H]1CN(c2ccc(C#Cc3ccccc3)cn2)C(=O)O1 (single isomer, unassigned) [Example 4, (5S or 5R)-5-Methoxymethyl-3-(5-phenylethynyl-pyridin-2-yl)-oxazolidin-2-one] | 278 nM | 98%
CO[C@@H]1C(=O)N(c2ccc(C#Cc3ccccc3)cn2)CC1(C)C (single isomer, unassigned) [Example 61] | 75 nM | 70%
CO[C@H]1C(=O)N(c2ccc(C#Cc3ccccc3)cn2)CC1(C)C (single isomer, unassigned) [Example 62] | 12 nM | 86%
CO[C@@H]1C(=O)N(c2ncc(C#Cc3ccccc3)cn2)CC1(C)C (single isomer, unassigned) [Example 128] | 46 nM | 54%
CO[C@H]1C(=O)N(c2ncc(C#Cc3ccccc3)cn2)CC1(C)C (single isomer, unassigned) [Example 129] | 18 nM | 90%
CO[C@@H]1C(=O)N(c2ncc(C#Cc3cccc(F)c3)cn2)CC1(C)C (single isomer, unassigned) [Example 131, (R or S)-1-[5-(3-Fluoro-phenylethynyl)-pyrimidin-2-yl]-3-methoxy-4,4-dimethyl-pyrrolidin-2-one] | 35 nM | 48%
CO[C@H]1C(=O)N(c2ncc(C#Cc3cccc(F)c3)cn2)CC1(C)C (single isomer, unassigned) [Example 132, (S or R)-1-[5-(3-Fluoro-phenylethynyl)-pyrimidin-2-yl]-3-methoxy-4,4-dimethyl-pyrrolidin-2-one] | 21 nM | 69%

Structure (SMILES) | EC50 | Emax
CO[C@@H]1C(=O)N(c2ncc(C#Cc3cc(F)ccc3F)cn2)CC1(C)C (single isomer, unassigned) [Example 133, (R or S)-1-[5-(2,5-Difluoro-phenylethynyl)-pyrimidin-2-yl]-3-methoxy-4,4-dimethyl-pyrrolidin-2-one] | 57 nM | 49%
CC1(C)CN(c2ncc(C#Cc3ccccc3)cc2F)C(=O)O1 [Example 1, 3-(3-Fluoro-5-phenylethynyl-pyridin-2-yl)-5,5-dimethyl-oxazolidin-2-one] | 30 nM | 68%
CC1(C)CN(c2ccc(C#Cc3ccccc3)cn2)C(=O)O1 [Example 5, 5,5-Dimethyl-3-(5-phenylethynyl-pyridin-2-yl)-oxazolidin-2-one] | 7 nM | 77%
CC1(C)CN(c2ccc(C#Cc3cccc(F)c3)cn2)C(=O)O1 [Example 6, 3-[5-(3-Fluoro-phenylethynyl)-pyridin-2-yl]-5,5-dimethyl-oxazolidin-2-one] | 9 nM | 46%
CC1(C)CN(c2ccc(C#Cc3cccnc3)cn2)C(=O)O1 [Example 7, 5,5-Dimethyl-3-(5-pyridin-3-ylethynyl-pyridin-2-yl)-oxazolidin-2-one] | 33 nM | 39%
O=C1OC2(CC2)CN1c1ccc(C#Cc2ccccc2)cn1 [Example 9, 6-(5-Phenylethynyl-pyridin-2-yl)-4-oxa-6-aza-spiro[2.4]heptan-5-one] | 15 nM | 83%
O=C1OC2(CCC2)CN1c1ccc(C#Cc2ccccc2)cn1 [Example 10, 7-(5-Phenylethynyl-pyridin-2-yl)-5-oxa-7-aza-spiro[3.4]octan-6-one] | 25 nM | 109%
O=C1OC2(CCCC2)CN1c1ccc(C#Cc2ccccc2)cn1 [Example 11, 3-(5-Phenylethynyl-pyridin-2-yl)-1-oxa-3-aza-spiro[4.4]nonan-2-one] | 39 nM | 52%
O=C1OC2(CCCCC2)CN1c1ccc(C#Cc2ccccc2)cn1 [Example 12, 3-(5-Phenylethynyl-pyridin-2-yl)-1-oxa-3-aza-spiro[4.5]decan-2-one] | 67 nM | 80%
CC1(C)CC(=O)N(c2ccc(C#Cc3ccccc3)cn2)C1 [Example 13, 4,4-Dimethyl-1-(5-phenylethynyl-pyridin-2-yl)-pyrrolidin-2-one] | 37 nM | 129%
CC1(C)CN(c2ccc(C#Cc3ccccc3)cn2)C(=O)N1 [Example 15, 4,4-Dimethyl-1-(5-phenylethynyl-pyridin-2-yl)-imidazolidin-2-one] | 130 nM | 101%
CN1C(=O)N(c2ccc(C#Cc3ccccc3)cn2)CC1(C)C [Example 16, 3,4,4-Trimethyl-1-(5-phenylethynyl-pyridin-2-yl)-imidazolidin-2-one] | 35 nM | 103%
CCN1C(=O)N(c2ccc(C#Cc3ccccc3)cn2)CC1(C)C [Example 17, 3-Ethyl-4,4-dimethyl-1-(5-phenylethynyl-pyridin-2-yl)-imidazolidin-2-one] | 66 nM | 103%
CC(C)N1C(=O)N(c2ccc(C#Cc3ccccc3)cn2)CC1(C)C [Example 18, 3-Isopropyl-4,4-dimethyl-1-(5-phenylethynyl-pyridin-2-yl)-imidazolidin-2-one] | 39 nM | 133%
CC1(C)CC(=O)N(c2ncc(C#Cc3ccccc3)cc2F)C1 [Example 21, 1-(3-Fluoro-5-phenylethynyl-pyridin-2-yl)-4,4-dimethyl-pyrrolidin-2-one] | 30 nM | 128%
CC1(C)CNC(=O)N(c2ccc(C#Cc3ccccc3)cn2)C1 [Example 25, 5,5-Dimethyl-1-(5-phenylethynyl-pyridin-2-yl)-tetrahydro-pyrimidin-2-one] | 69 nM | 148%
